Results as given in patent publication US20240115729A1, “COMPOSITIONS AND METHODS FOR TARGETED ANTIFIBROTIC THERAPY IN CHRONIC PANCREATITIS” (University of Virginia Patent Foundation, priority 2021, published 2024).
Where “and” joins values, the source holds several entries; their conditions need not be identical. Equal entries are not always repeated.

Key:
[1] = biological target: carboxypeptidase A1 (CPA1) (mouse) (UniProt Q7TPZ8); test: IF colocalization (JACoP) of VT680 phage with marker, CP mouse pancreas sections
collagen IIIa (mouse) = collagen IIIa (mouse) (UniProt P08121); test: as above
CD31 (mouse) = CD31 (mouse) (UniProt Q08481); test: as above
F4/80 (mouse) = F4/80 (mouse) (UniProt Q61549); test: as above
[2] = biological target: cytokeratin 7 (CK-7) (mouse) (UniProt Q9DCV7); test: as above
CK7 (epithelium) = test: Immunofluorescence colocalization (MCC) of VT680-labeled phage with cell marker in CP pancreas; assay type: in vivo, mouse; details: CP pancreas sections
Text: (§1) Immunofluorescence (IF). Post ex vivo imaging, mouse pancreata were submerged in Neg-50 Frozen Section Medium (Thermo Scientific, Waltham, Massachusetts, United States of America) and snap-frozen over liquid nitrogen vapor. The embedded tissues were cut into 5 μm sections using a cryostat (Leica Microsystems Inc., Buffalo Grove, Illinois, United States of America) for subsequent imaging with ZEISS LSM-880 Confocal Laser Scanning Microscope (Carl Zeiss Meditec, Inc., Jena, Germany) at the Advanced Microscopy Facility at the University of Virginia. Cell types of interest in the pancreatitis microenvironment were identified by immunohistochemistry using the following antibodies: rat anti-mouse CD31 at 1:200 dilution (endothelial markers; BD Biosciences, San Jose, California, United States of America), rat anti-mouse CD206 at 1:1000 dilution (M2 macrophage markers; Bio-Rad, Hercules, California, United States of America), rabbit anti-mouse cytokeratin 7 at 1:3000 dilution (CK-7, epithelial markers; Abcam, Cambridge, Massachusetts, United States of America), rabbit anti-mouse collagen IIIa at 1:200 dilution (ECM markers; Abcam, Cambridge, Massachusetts, United States of America), goat anti-mouse carboxypeptidase A1 at 1:200 dilution (CPA1, acini markers; R&D Systems, Inc., Minneapolis, Minnesota, United States of America), rat anti-mouse F4/80 at 1:500 (macrophage markers; Bio-Rad, Hercules, California, United States of America), and FITC-conjugated, mouse anti-mouse α-SMA at 1:200 dilution (MilliporeSigma, St. Louis, Missouri, United States of America). ALEXA FLUOR® 488 (Abcam, Cambridge, Massachusetts, United States of America) antibodies from appropriate species, including donkey anti-goat, donkey anti-rat, donkey anti-rabbit at 1:500 dilution, were used as secondary antibodies to locate the primary antibodies. IF-stained pancreatic sections were mounted with PROLONG™ Gold Antifade Mountant with DAPI (Thermo Fisher Scientific Inc, Waltham, Massachusetts, United States of America, United States of America) for nucleus visualization. IF images were taken on Ziess LSM 880 Confocal Microscope (ZIESS, Oberkochen, Germany) at the Advanced Microscopy Facility at the University of Virginia.
(§2) To identify the cell types that the CP targeting clones were binding, immunofluorescent analysis was performed on common cellular components in the CP microenvironment in the inflamed pancreas sections following in vivo validation of individual clones (FIG. 7). Mander's correlation coefficient (MCC) analysis was performed to determine colocalization of the targeting phage to the cell markers.

CD31 (endothelium) = test: as above; assay type: in vivo, mouse; details: CP pancreas sections
Text: as §1, §2

[3] = tested on: collagen IIIa+ cells (ECM); test: as above; assay type: in vivo, mouse; details: Col IIIa; CP pancreas sections
Text: as §1, §2

[4] = tested on: αSMA+ cells (activated PSC); test: as above; assay type: in vivo, mouse; details: CP pancreas sections
Text: as §1, §2

[5] = tested on: F4/80+ cells (macrophages); test: as above; assay type: in vivo, mouse; details: CP pancreas sections
Text: as §1, §2

[6] = tested on: CPA-1+ cells (acinar cells); test: as above; assay type: in vivo, mouse; details: CP pancreas sections
Text: as §1, §2

[7] = tested on: cellular components in the CP microenvironment; test: Cellular selectivity of phage clones: one-way ANOVA and Tukey-Kramer comparison of MCC of all cell markers; assay type: in vivo, mouse
Text: as §1
Statistical analysis. Statistical analysis of the data was performed by student t-test, one-way analysis of variance (ANOVA), and Tukey-Kramer test. All data presented are expressed as mean+standard error of at least three independent measurements. For all comparisons, p-values<0.05 were considered significant.
as §2

[8] = tested on: caerulein-induced CP mice (inflamed pancreas) versus healthy mice; test: In vivo validation of individual phage clones: ex vivo IVIS fluorescence of organs after co-injection of targeting phage (VT680) and wild type M13Ke phage (VT750); set-up: species or system mouse (C57BL/6J); details: for CP-to-Healthy Ratio (fold change of specificity ratio): Pancreas; for specificity for CP over healthy pancreas: individual clones from Groups 2 and 3
Description: C57BL/6 J mice (6-12 week-old, female) were used for the in vivo phage screening. For chronic pancreatitis, caerulein (Bachem, Torrance, California, United States of America) was dissolved in sterile saline and administrated to mice twice a day, 8 hours apart for 14 consecutive days, at a concentration of 250 μg/kg body weight via intraperitoneal injection (Halbrook et al., 2017), as shown in FIG. 1A. During the 14-day course, intraperitoneal injections of 100 μg/kg buprenorphine were given every 3 days to minimize the induced pain. For healthy controls, c57BL/6 J mice were injected intraperitoneally with an equal volume of sterile saline following the same schedule as in the chronic pancreatitis models. […] Picrosirius red (Polysciences, Inc., Warrington, Pennsylvania, United States of America) was used to visualize collagen in paraffin-embedded pancreas sections (FIG. 1B).
Specificity of phage clones. After PHASTpep analysis and candidate clone selections, 18 candidate clones were grouped (4-5 clones per group, 4 groups total) based on sequence similarity using GibbsCluster Server 2.0 (Andreatta et al., 2017). by the Technical University of Denmark (FIG. 2). […] For each group, the fluorescently labeled candidate and WT phage were mixed and co-injected in CP and healthy mice (n=5) Phage accumulation was determined by measuring the ex vivo fluorescent intensity of the pancreas at 20 hours post-injection using the Fluorescent Molecular Tomography (FMT, PerkinElmer, Waltham, Massachusetts, United States of America) using the excitation and emission wavelength at 675 nm/720 nm for VT680 and 745 nm/800 nm for VT750. To account for variations of fluorescent labeling efficiency, the raw readouts of VT680 and VT750 were normalized to the dye-per-phage ratio (see Table 3 below).
The specificity ratio was calculated as % ID/g of the normalized VT680 divided by the % ID/g of the normalized VT750 (see Equation (1)). Quantifications are included in Table 4.
A similar procedure was applied to determine the specificity of individual phage clones in Groups 2 and 3. Candidate clones were labeled with VivioTag 680 (VT680, PerkinElmer, Waltham, MA) to match the detectable wavelength of the IVIS Spectrum Series (Perkin Elmer, Waltham, Massachusetts, United States of America). Fluorescent intensity was measured at 20 hours post-injection of candidate phage (VT680) and WT phage (VT750). Fold change of specificity ratio was calculated as the specificity ratio of CP mice divided by the specificity ratio of the healthy mouse (see Table 5).

[9] = statistically significant selectivity for a single cellular component in CP

UniProt Q08481, sequence (Q08481 18-727): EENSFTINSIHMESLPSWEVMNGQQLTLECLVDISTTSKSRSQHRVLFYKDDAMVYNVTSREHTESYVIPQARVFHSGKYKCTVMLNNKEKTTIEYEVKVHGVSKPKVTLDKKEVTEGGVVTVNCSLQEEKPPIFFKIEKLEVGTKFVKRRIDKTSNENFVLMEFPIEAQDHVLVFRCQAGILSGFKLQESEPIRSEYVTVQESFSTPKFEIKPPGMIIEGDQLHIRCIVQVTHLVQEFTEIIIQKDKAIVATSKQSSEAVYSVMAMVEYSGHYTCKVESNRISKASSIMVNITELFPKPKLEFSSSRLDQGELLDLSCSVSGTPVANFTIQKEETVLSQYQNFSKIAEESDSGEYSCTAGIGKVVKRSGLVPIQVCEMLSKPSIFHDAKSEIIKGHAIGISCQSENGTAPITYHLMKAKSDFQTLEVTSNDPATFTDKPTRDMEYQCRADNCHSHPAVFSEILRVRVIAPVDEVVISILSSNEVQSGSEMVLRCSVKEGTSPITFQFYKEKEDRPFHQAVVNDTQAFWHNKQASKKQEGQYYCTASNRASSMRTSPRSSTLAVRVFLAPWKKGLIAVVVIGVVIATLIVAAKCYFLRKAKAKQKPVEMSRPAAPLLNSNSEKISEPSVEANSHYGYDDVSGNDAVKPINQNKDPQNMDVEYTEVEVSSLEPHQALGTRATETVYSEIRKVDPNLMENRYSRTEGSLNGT
UniProt Q61549, sequence (Q61549 28-931): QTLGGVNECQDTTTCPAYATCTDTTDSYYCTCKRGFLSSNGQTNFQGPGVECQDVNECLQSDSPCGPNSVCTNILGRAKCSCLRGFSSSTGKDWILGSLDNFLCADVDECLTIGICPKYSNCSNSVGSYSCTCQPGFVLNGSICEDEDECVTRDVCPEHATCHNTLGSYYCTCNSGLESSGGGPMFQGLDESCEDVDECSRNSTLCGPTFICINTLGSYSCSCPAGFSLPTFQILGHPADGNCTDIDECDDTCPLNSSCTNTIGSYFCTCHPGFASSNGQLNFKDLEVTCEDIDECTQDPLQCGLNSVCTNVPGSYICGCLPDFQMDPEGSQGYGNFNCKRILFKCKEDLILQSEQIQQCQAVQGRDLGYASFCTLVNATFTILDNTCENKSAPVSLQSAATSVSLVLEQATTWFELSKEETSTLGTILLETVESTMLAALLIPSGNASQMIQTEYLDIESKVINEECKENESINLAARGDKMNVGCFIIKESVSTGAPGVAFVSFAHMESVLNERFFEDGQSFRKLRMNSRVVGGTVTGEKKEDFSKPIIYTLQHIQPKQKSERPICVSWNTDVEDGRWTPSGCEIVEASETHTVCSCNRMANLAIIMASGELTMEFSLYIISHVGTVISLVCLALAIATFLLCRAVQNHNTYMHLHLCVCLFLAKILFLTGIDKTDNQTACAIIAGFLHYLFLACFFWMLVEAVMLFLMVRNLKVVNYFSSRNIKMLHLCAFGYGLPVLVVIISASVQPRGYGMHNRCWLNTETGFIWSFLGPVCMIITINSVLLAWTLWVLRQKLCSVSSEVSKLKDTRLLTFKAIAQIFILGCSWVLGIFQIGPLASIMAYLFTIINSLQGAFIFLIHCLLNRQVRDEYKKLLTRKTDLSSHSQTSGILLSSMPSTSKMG
UniProt Q9DCV7, sequence (Q9DCV7 2-457): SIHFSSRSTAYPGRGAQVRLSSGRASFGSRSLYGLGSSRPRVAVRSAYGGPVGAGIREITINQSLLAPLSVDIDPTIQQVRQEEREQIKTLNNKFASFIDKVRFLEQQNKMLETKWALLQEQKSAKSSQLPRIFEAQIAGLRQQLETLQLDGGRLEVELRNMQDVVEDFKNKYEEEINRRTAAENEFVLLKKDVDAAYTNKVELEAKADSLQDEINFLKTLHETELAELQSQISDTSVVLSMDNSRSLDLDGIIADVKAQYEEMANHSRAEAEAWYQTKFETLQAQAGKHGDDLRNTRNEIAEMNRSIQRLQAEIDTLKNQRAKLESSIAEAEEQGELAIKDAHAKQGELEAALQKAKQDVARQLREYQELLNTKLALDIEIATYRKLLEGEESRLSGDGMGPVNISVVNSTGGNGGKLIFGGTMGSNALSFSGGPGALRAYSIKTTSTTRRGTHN
UniProt Q7TPZ8, sequence (Q7TPZ8 111-419): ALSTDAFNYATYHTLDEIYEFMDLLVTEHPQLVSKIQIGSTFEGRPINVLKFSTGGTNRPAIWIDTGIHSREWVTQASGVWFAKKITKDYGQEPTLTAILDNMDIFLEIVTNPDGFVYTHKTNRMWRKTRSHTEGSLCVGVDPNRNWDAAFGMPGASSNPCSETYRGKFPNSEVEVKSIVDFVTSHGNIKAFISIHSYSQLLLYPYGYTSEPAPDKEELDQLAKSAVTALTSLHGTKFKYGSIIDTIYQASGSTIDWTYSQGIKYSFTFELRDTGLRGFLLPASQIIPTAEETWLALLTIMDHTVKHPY
UniProt P08121, sequence (P08121 155-1219): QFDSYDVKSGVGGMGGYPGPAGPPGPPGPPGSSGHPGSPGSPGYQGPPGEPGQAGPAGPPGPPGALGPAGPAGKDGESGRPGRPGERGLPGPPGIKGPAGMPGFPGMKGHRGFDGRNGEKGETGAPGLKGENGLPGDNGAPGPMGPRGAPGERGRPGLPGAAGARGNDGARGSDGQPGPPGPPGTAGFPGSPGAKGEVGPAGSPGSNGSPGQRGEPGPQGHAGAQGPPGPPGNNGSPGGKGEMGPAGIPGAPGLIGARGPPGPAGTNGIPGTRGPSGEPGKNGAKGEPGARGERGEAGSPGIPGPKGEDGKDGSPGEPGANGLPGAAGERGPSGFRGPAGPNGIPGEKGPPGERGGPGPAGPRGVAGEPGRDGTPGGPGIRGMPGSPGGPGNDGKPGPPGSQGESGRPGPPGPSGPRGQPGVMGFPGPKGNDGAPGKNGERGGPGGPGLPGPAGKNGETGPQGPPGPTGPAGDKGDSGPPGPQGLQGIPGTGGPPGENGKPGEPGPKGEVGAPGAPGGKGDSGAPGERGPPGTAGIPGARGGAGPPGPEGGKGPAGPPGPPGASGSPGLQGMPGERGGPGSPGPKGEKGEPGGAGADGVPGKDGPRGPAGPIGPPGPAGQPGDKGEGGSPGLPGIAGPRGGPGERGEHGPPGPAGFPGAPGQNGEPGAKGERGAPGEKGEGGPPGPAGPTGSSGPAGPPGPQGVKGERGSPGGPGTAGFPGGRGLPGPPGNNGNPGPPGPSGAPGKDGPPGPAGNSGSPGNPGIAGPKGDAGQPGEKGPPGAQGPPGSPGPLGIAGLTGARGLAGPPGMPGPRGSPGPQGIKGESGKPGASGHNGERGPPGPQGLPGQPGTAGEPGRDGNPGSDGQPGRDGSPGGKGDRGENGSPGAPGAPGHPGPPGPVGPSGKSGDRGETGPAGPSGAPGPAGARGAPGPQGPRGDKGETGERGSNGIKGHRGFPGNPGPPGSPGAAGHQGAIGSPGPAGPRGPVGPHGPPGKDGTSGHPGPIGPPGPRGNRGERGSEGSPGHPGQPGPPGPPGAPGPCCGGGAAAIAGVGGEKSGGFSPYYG

| Substance | mean Manders' correlation coefficient (MCC), fraction of phage overlapping cell marker [1] | mean Manders' correlation coefficient (MCC), fraction of phage overlapping cell marker (collagen IIIa (mouse)) | mean Manders' correlation coefficient (MCC), fraction of phage overlapping cell marker (CD31 (mouse)) | mean Manders' correlation coefficient (MCC), fraction of phage overlapping cell marker (F4/80 (mouse)) | mean Manders' correlation coefficient (MCC), fraction of phage overlapping cell marker [2] | Mean Manders' Correlation Coefficient (MCC), fraction of phage overlapping cell marker (CK7 (epithelium)) | Mean Manders' Correlation Coefficient (MCC), fraction of phage overlapping cell marker (CD31 (endothelium)) | Mean Manders' Correlation Coefficient (MCC), fraction of phage overlapping cell marker [3] | Mean Manders' Correlation Coefficient (MCC), fraction of phage overlapping cell marker [4] | Mean Manders' Correlation Coefficient (MCC), fraction of phage overlapping cell marker [5] | Mean Manders' Correlation Coefficient (MCC), fraction of phage overlapping cell marker [6] | Cell type the phage clone shows specificity to ([7]; CP microenvironment) | Corresponding Cellular Components [7, 9] | Radiant efficiency Targeting:M13Ke ([8]; CP mouse, liver) | Radiant efficiency Targeting:M13Ke ([8]; CP mouse, pancreas) | Radiant efficiency Targeting:M13Ke ([8]; CP mouse, spleen) | CP-to-Healthy Ratio ([8]; Liver) | CP-to-Healthy Ratio (fold change of specificity ratio) [8] | CP-to-Healthy Ratio ([8]; Spleen) | Radiant efficiency Targeting:M13Ke ([8]; healthy mouse, liver) | further results |
| --- | --- | --- | --- | --- | --- | --- | --- | --- | --- | --- | --- | --- | --- | --- | --- | --- | --- | --- | --- | --- | --- |
| HPYSPLR (SEQ ID NO: 11) phage clone (peptide) | 0.25 | 0.27 | 0.35 | 0.41 | 0.08 |  |  |  |  |  |  |  |  |  |  |  |  |  |  |  |  |
| KTYVPTT (SEQ ID NO: 14) phage clone (peptide) | 0.26 | 0.23 | 0.2 | 0.31 | 0.06 |  |  |  |  |  |  |  |  |  |  |  |  |  |  |  |  |
| MDLSLKP (SEQ ID NO: 19) phage clone (peptide) | 0.31 |  | 0.2 | 0.46 | 0.06 |  |  |  |  |  |  |  |  |  |  |  |  |  |  |  |  |
| MNSIAIP (SEQ ID NO: 20) phage clone (peptide) | 0.63 | 0.34 | 0.24 | 0.37 | 0.05 |  |  |  |  |  |  |  |  |  |  |  |  |  |  |  |  |
| MNSIAIP (displayed on phage) |  |  |  |  |  | 0.05 | 0.24 | 0.34 | 0.07 | 0.37 | 0.633±0.179 and 0.63 | Acinar cells | Acinar cells | 0.61 | 9.81 | 3.61 | 1.144 | 1.945 | 0.829 | 0.53 | Marker the phage clone shows specificity to ([7]; CP microenvironment): CPA1^+; Colocalized Markers (p < 0.05) [7, 9]: CPA-1; Radiant efficiency Targeting:M13Ke ([8]; healthy mouse, pancreas): 5.04; Radiant efficiency Targeting:M13Ke ([8]; healthy mouse, spleen): 4.36; specificity for CP over healthy pancreas [8]: increased specificity for CP over healthy pancreas |
| SLPLGPM (SEQ ID NO: 26) phage clone (peptide) | 0.35 | 0.23 | 0.25 | 0.49 | 0.06 |  |  |  |  |  |  |  |  |  |  |  |  |  |  |  |  |
| SLTNSSF (displayed on phage) |  |  |  |  |  | 0.11 | 0.13 | 0.33 | 0.06 | 0.804±0.090 and 0.80 | 0.22 | Macrophage | Macrophage | 1.33 | 8.86 | 2.65 | 1.248 | 5.469 | 0.985 | 1.06 | Radiant efficiency Targeting:M13Ke ([8]; healthy mouse, pancreas): 1.62; Radiant efficiency Targeting:M13Ke ([8]; healthy mouse, spleen): 2.69; specificity for CP over healthy pancreas [8]: increased specificity for CP over healthy pancreas |
| SNSQDLH (SEQ ID NO: 28) phage clone (peptide) | 0.23 | 0.33 | 0.12 | 0.8 | 0.14 |  |  |  |  |  |  |  |  |  |  |  |  |  |  |  |  |
| SNSQDLH (displayed on phage) |  |  |  |  |  | 0.14 | 0.12 | 0.33 | 0.05 | 0.800±0.197 and 0.80 | 0.23 | Macrophage | Macrophage | 0.73 | 6.22 | 3.27 | 1.428 | 3.009 | 0.165 | 0.51 | Radiant efficiency Targeting:M13Ke ([8]; healthy mouse, pancreas): 2.07; Radiant efficiency Targeting:M13Ke ([8]; healthy mouse, spleen): 3.11; specificity for CP over healthy pancreas [8]: increased specificity for CP over healthy pancreas |
